Experimental data from patent US8962687B2, “Method of treating liver disorders” (priority 2012, dated 2015).
“Also recorded” adds a separate entry of the source.

How the values were obtained:
Type in all cases: in vivo, C57BL/6 mice
TNF-α mRNA = experiment: Quantitative RT-PCR of liver, TNF-α; conditions: relative, mean±SD
Description: (§1) Total RNA was extracted from liver samples using RNAiso (Takara Bio, Japan) according to the manufacturer's instructions. One μg of RNA was reverse-transcribed using a reaction mixture containing 4.4 mM MgCl2 (Roche, Switzerland), 40 U RNase inhibitor (Toyobo, Japan), 0.5 mM dNTP (Promega, USA), 6.28 μM random hexamer (Promega), 5× first strand buffer (Promega), 10 mM dithiothreitol (Invitrogen) and 200 U MMLV-RT (Invitrogen) in a final volume of 20 μL. The reaction was carried out for 1 hour at 37° C., followed by 5 minutes at 99° C. Real-time PCR was performed using real-time PCR DICE and SYBR premix Taq (Takara Bio). To calculate the relative mRNA expression level, the expression of each gene was normalized to that of reference gene 36B4 (gene symbol: Rp1p0). Information of PCR-primer sets and the plate layout was described in Table 1.

STAM mice [1] = experiment: Whole blood glucose and plasma ALT/AST in STAM model; conditions: mean±SD; for Whole blood glucose: non-fasting
Description: Non-fasting blood glucose was measured in whole blood using […], Japan). For plasma biochemistry, blood was collected in polypropylene tubes with anticoagulant (Novo-Heparin, Mochida Pharmaceutical, Japan) and centrifuged at 1,000×g for 15 minutes at 4° C. The supernatant was collected and stored at -80° until use. Plasma ALT and AST levels were measured by FUJI DRI-CHEM 7000 (Fujifilm, Japan).

CCR2 mRNA = experiment: Quantitative RT-PCR of liver, CCR2; conditions: relative, mean±SD
Description: as §1

STAM mice [2] = experiment: HE staining and NAFLD Activity Score (NAS) in STAM model of NASH; parameters: key to NAS (mean ± SD): NAFLD Activity Score per Kleiner et al. 2005 criteria; conditions: for Hepatocyte ballooning score 0, number of mice: score 0 = None; for Steatosis score 1, number of mice: score 1 = 5-33%; for Lobular inflammation score 1, number of mice: score 1 = <2 foci/200x; for Hepatocyte ballooning score 1, number of mice: score 1 = Few balloon cells; for Lobular inflammation score 2, number of mice: score 2 = 2-4 foci/200x; for Hepatocyte ballooning score 2, number of mice: score 2 = Many cells/prominent ballooning
Description: STAM™ is a model for non-alcoholic steatohepatitis (NASH), symtoms thereof, and related liver disorders, created by the combination of chemical and dietary interventions in C57BL/6 mice. […] For HE staining, sections were cut from paraffin blocks of left lateral liver tissue prefixed in Bouin's solution and stained with Lillie-Mayer's Hematoxylin (Muto Pure Chemicals, Japan) and eosin solution (Wako Pure Chemical Industries). NAS was calculated according to the criteria of Kleiner (Kleiner D E. et al., Hepatology, 2005; 41:1313). To visualize collagen deposition, Bouin's fixed left lateral liver sections were stained using picro-Sirius red solution (Waldeck, Germany).

STAM mice [3] = experiment: Alpha-SMA immunostaining in STAM model; conditions: mean±SD
Description: (§2) For immunohistochemistry, sections were cut from frozen left lateral liver tissues embedded in Tissue-Tek O.C.T. compound and fixed in acetone. Endogenous peroxidase activity was blocked using 0.03% H2O2 for 5 minutes, followed by incubation with Block Ace (Dainippon Sumitomo Pharma, Japan) for 10 minutes. The sections were incubated with a 200-fold dilution of anti-α-SMA (Epitomics, USA) or anti-F4/80 antibody (BMA Biomedicals, Switzerland) 1 hour at room temperature. […] For quantitative analysis of fibrosis area, inflammation area, and semi-quantification of α-SMA, bright field images of Sirius red-stained, F4/80 and α-SMA-immunostained sections were captured around the central vein using a digital camera (DFC280; Leica, Germany) at 200-fold magnification, and the positive areas in 5 fields/section were measured using ImageJ software (National Institute of Health, USA).

TIMP-1 mRNA = experiment: Quantitative RT-PCR of liver, TIMP-1; conditions: relative, mean±SD
Description: as §1

STAM mice [4] = experiment: F4/80 immunostaining, inflammation area in STAM model; conditions: mean±SD
Description: as §2

STAM mice [5] = experiment: Sirius red staining, fibrosis area in STAM model; conditions: for fibrosis area (Sirius red-positive area): mean±SD
Description: For HE staining, sections were cut from paraffin blocks of left lateral liver tissue prefixed in Bouin's solution and stained with Lillie-Mayer's Hematoxylin (Muto Pure Chemicals, Japan) and eosin solution (Wako Pure Chemical Industries). NAS was calculated according to the criteria of Kleiner (Kleiner D E. et al., Hepatology, 2005; 41:1313). To visualize collagen deposition, Bouin's fixed left lateral liver sections were stained using picro-Sirius red solution (Waldeck, Germany). For quantitative analysis of fibrosis area, inflammation area, and semi-quantification of α-SMA, bright field images of Sirius red-stained, F4/80 and α-SMA-immunostained sections were captured around the central vein using a digital camera (DFC280; Leica, Germany) at 200-fold magnification, and the positive areas in 5 fields/section were measured using ImageJ software (National Institute of Health, USA).

MCP-1 mRNA = experiment: Quantitative RT-PCR of liver, MCP-1; conditions: relative, normalized to 36B4, 30 mg/kg oral once daily, 6-9 wks (MN-001-middle group), mean±SD
Description: as §1

Alpha-SMA mRNA = experiment: Quantitative RT-PCR of liver, Alpha-SMA; conditions: relative, mean±SD
Description: as §1

STAM mice [6] = experiment: Liver hydroxyproline content in STAM model; conditions: mean±SD
Description: To quantify liver hydroxyproline content, frozen liver samples (32-40 mg) were processed by an alkaline-acid hydrolysis method as follows. Liver samples were defatted with 100% acetone, dried in the air, dissolved in 2N NaOH at 65° C., and autoclaved at 121° C. for 20 minutes. The lysed samples (400 μL) were acid-hydrolyzed with 400 μL of 6N HCl at 121° C. for 20 minutes, and neutralized with 400 μL of 4N NaOH containing 10 mg/mL activated carbon. AC buffer (2.2M acetic acid/0.48M citric acid, 400 μL) was added to the samples, followed by centrifugation to collect the supernatant. A standard curve of hydroxyproline was constructed with serial dilutions of trans-4-hydroxy-L-proline (Sigma-Aldrich) starting at 16 μg/mL. The prepared samples and standards (each 400 μL) were mixed with 400 μL chloramine T solution (Wako Pure Chemical Industries) and incubated for 25 minutes at room temperature. […] After samples were cooled on ice and centrifuged to remove precipitates, the optical density of each supernatant was measured at 560 nm. The concentrations of hydroxyproline were calculated from the hydroxyproline standard curve. Protein concentrations of liver samples were determined using a BCA protein assay kit (Thermo Fisher Scientific, USA) and used to normalize the calculated hydroxyproline values. Liver hydroxyproline levels were expressed as μg per mg protein.

STAM mice [7] = experiment: Liver weight and liver-to-body weight ratio in STAM model; conditions: mean±SD
Description: NASH was induced in 50 male mice by a single subcutaneous injection of 200 μg streptozotocin (STZ, Sigma-Aldrich, USA) solution 2 days after birth and feeding with high fat diet (HFD, 57 kcal % fat, cat#: HFD32, CLEA Japan, Japan) after 4 weeks of age. Ten male littermates, fed with normal diet and without STZ treatment, were used for the normal group. Vehicle, MN-001, and Telmisartan were administered by oral route in a volume of 10 mL/kg. MN-001 was administered at doses of 10, 30, and 100 mg/kg once daily. Telmisartan was administered at dose of 10 mg/kg once daily.

[8] = normalized to 36B4, 10 mg/kg oral once daily, 6-9 wks (MN-001-low; Telmisartan groups)
[9] = 10 mg/kg oral once daily, 6-9 wks of age (MN-001-low; Telmisartan groups)
[10] = 10 mg/kg oral once daily, 6-9 wks, n 10
[11] = normalized to 36B4, 30 mg/kg oral once daily, 6-9 wks (MN-001-middle group)
[12] = normalized to 36B4, 100 mg/kg oral once daily, 6-9 wks (MN-001-high group)
[13] = 30 mg/kg oral once daily, 6-9 wks of age (MN-001-middle group)
[14] = 100 mg/kg oral once daily, 6-9 wks of age (MN-001-high group)
[15] = 30 mg/kg oral once daily, 6-9 wks, n 10
[16] = 100 mg/kg oral once daily, 6-9 wks, n 10

CCCc1nc2c(C)cc(-c3nc4ccccc4n3C)cc2n1Cc1ccc(-c2ccccc2C(=O)O)cc1 [Telmisartan, reference compound]
TNF-α mRNA expression levels (TNF-α mRNA; [8]): 8.35±2.84 | Plasma AST (STAM mice [1]; [9]): 190±28 U/L | CCR2 mRNA expression levels (CCR2 mRNA; [8]): 3.21±0.85 | hepatocellular ballooning, HE-stained liver sections, compared with Vehicle (STAM mice [2]; [9]): marked improvements | inflammatory cell infiltration, HE-stained liver sections, compared with Vehicle (STAM mice [2]; 10 mg/kg oral once daily, 6-9 wks of age (Telmisartan group)): marked improvements | Steatosis score 0, number of mice (STAM mice [2]; 10 mg/kg oral once daily, 6-9 wks, score 0 = <5%, n 10): 1 | Hepatocyte ballooning score 0, number of mice (STAM mice [2]; [10]): 4 | Steatosis score 1, number of mice (STAM mice [2]; [10]): 9 | Lobular inflammation score 1, number of mice (STAM mice [2]; [10]): 10 | Hepatocyte ballooning score 1, number of mice (STAM mice [2]; [10]): 6 | α-SMA-positive area (STAM mice [3]; [9]): 0.12±0.05% | TIMP-1 mRNA expression levels (TIMP-1 mRNA; [8]): 7.82±2.62

CCCc1c(SCCCOc2ccc(C(C)=O)c(OCCCC(=O)O)c2CCC)ccc(C(C)=O)c1O [MN-001]
TNF-α mRNA expression levels (TNF-α mRNA; [8]): 3.42±2.53 | TNF-α mRNA expression levels (TNF-α mRNA; [11]): 7.97±9.30 | TNF-α mRNA expression levels (TNF-α mRNA; [12]): 9.74±3.34 | Plasma ALT (STAM mice [1]; [9]): 71±60 U/L | Plasma ALT (STAM mice [1]; [13]): 48±23 U/L | Plasma ALT (STAM mice [1]; [14]): 54±11 U/L | Whole blood glucose (STAM mice [1]; [9]): 614 ± 98 mg/dL | Whole blood glucose (STAM mice [1]; [13]): 609 ± 78 mg/dL | Whole blood glucose (STAM mice [1]; [14]): 671 ± 124 mg/dL | CCR2 mRNA expression levels (CCR2 mRNA; [12]): 3.86±1.43 | inflammation area (F4/80-positive area) (STAM mice [4]; [13]): 6.33±0.84% | inflammation area (F4/80-positive area) (STAM mice [4]; [14]): 6.31±0.76% | fibrosis area (Sirius red-positive area) (STAM mice [5]; [9]): 0.76±0.19% | fibrosis area (Sirius red-positive area) (STAM mice [5]; [13]): 0.76±0.16% | fibrosis area (Sirius red-positive area) (STAM mice [5]; [14]): 0.69±0.18% | fibrosis area compared with Vehicle (STAM mice [5]; MN-001 treatment groups together (10, 30, 100 mg/kg oral once daily, 6-9 wks), dose dependent manner): significantly reduced; also recorded: significantly decreased | NAS (mean ± SD) (STAM mice [2]; [9]): 4.7±0.5 | hepatocellular ballooning, HE-stained liver sections, compared with Vehicle (STAM mice [2]; [9]): moderate decrease | Steatosis score 1, number of mice (STAM mice [2]; [10]): 10 | Lobular inflammation score 1, number of mice (STAM mice [2]; [10]): 1 | Hepatocyte ballooning score 1, number of mice (STAM mice [2]; [10]): 2 | Lobular inflammation score 2, number of mice (STAM mice [2]; [10]): 9 | Hepatocyte ballooning score 2, number of mice (STAM mice [2]; [10]): 8 | NAS (mean ± SD) (STAM mice [2]; [13]): 4.7±0.5 | hepatocellular ballooning, HE-stained liver sections, compared with Vehicle (STAM mice [2]; [13]): moderate decrease | Steatosis score 1, number of mice (STAM mice [2]; [15]): 10 | Hepatocyte ballooning score 1, number of mice (STAM mice [2]; [15]): 3 | Lobular inflammation score 2, number of mice (STAM mice [2]; [15]): 10 | Hepatocyte ballooning score 2, number of mice (STAM mice [2]; [15]): 7 | hepatocellular ballooning, HE-stained liver sections / ballooning score, compared with Vehicle (STAM mice [2]; [14]): significantly reduced; also recorded: marked improvements | inflammatory cell infiltration, HE-stained liver sections, compared with Vehicle (STAM mice [2]; [14]): moderate improvements | Lobular inflammation score 0, number of mice (STAM mice [2]; 100 mg/kg oral once daily, 6-9 wks, score 0 = No foci, n 10): 1 | Hepatocyte ballooning score 0, number of mice (STAM mice [2]; [16]): 2 | Steatosis score 1, number of mice (STAM mice [2]; [16]): 10 | Lobular inflammation score 1, number of mice (STAM mice [2]; [16]): 4 | Hepatocyte ballooning score 1, number of mice (STAM mice [2]; [16]): 7 | Lobular inflammation score 2, number of mice (STAM mice [2]; [16]): 5 | Hepatocyte ballooning score 2, number of mice (STAM mice [2]; [16]): 1 | α-SMA-positive area (STAM mice [3]; [13]): 0.11±0.04% | TIMP-1 mRNA expression levels (TIMP-1 mRNA; [12]): 10.6±5.83 | MCP-1 mRNA expression levels (MCP-1 mRNA): 4.00±7.78 | Alpha-SMA mRNA expression levels (Alpha-SMA mRNA; [8]): 36.8±111 | Alpha-SMA mRNA expression levels (Alpha-SMA mRNA; [11]): 3.13±2.52 | Alpha-SMA mRNA expression levels (Alpha-SMA mRNA; [12]): 5.78±3.45 | Liver hydroxyproline content (STAM mice [6]; [9]): 0.78±0.34 μg/mg protein | Liver hydroxyproline content (STAM mice [6]; [13]): 0.63±0.12 μg/mg protein | Mean liver weight (STAM mice [7]; [9]): 1567 ± 165 mg | Mean liver weight (STAM mice [7]; [14]): 1480 ± 145 mg
